Laboratory results reported in patent publication US9096591B2, “Tetracyclic compounds” (Medivation Technologies, Inc., priority 2007, dated 2015).
Like-named read-outs stand apart in the source and are kept apart here.

Experiments:
[1] = target: T1, human recombinant histamine H1 receptor (Homo sapiens, UniProt P35367); assay: Histamine H1 radioligand binding ([3H]Pyrilamine); details: for inhibition at 0.03 µM: 0.03 μM compound; for inhibition at 0.1 µM: 0.1 μM compound
T1 construct: expressed in transfected cells; host or cells: CHO cells
T1 sequence (P35367 whole entry): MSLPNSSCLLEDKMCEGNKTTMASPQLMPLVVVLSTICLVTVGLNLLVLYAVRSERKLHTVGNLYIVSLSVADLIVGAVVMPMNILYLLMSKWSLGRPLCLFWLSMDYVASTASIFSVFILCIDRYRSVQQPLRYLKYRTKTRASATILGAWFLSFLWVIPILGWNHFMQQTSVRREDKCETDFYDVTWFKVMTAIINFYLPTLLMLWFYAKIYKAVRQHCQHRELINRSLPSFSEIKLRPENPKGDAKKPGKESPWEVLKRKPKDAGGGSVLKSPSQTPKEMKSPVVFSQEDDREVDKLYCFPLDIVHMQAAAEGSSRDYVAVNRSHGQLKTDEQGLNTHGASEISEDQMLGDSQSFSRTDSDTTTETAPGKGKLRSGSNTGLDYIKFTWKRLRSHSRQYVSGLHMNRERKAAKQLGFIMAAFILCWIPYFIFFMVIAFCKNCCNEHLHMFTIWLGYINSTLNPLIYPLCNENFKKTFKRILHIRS
Description: To evaluate in radioligand binding assays the activity of compounds of the invention, human recombinant histamine H1 receptor expressed in Chinese hamster ovary (CHO) cells (De Backer M D et al. Biochem. Biophys. Res Comm. 197(3):1601, 1993) in a modified Tris-HCl buffer (50 mM Tris-HCl, pH 7.4, 2 mM MgCl2, 100 mM NaCl, 250 mM Sucrose) were used. […] Non-specific binding was estimated in the presence of 1 μM pyrilamine. Receptor proteins were filtered and washed, the filters were then counted to determine [^3H]pyrilamine specifically bound. […] Biochemical assay results are presented as the percent inhibition of specific binding in Table 5.
To evaluate in radioligand binding assays the activity of compounds of the invention, human recombinant histamine H1 receptor expressed in Chinese hamster ovary (CHO) cells (De Backer, M. D. et al., Biochem. Biophys. Res. Comm. 197(3):1601, 1993) in a modified Tris-HCl buffer (50 mM Tris-HCl, pH 7.4, 2 mM MgCl2, 100 mM NaCl, 250 mM Sucrose) was used. […] Non-specific binding was estimated in the presence of 1 μM pyrilamine. Receptor proteins were filtered and washed, the filters were then counted to determine [^3H]Pyrilamine specifically bound. Compounds were screened at 1 μM, using 1% DMSO as vehicle. Biochemical assay results are presented as the percent inhibition of specific binding in Table 6.

[2] = target: T2, human recombinant histamine H2 receptor (Homo sapiens, UniProt P25021); assay: Histamine H2 radioligand binding ([125I]Aminopotentidine); details: for inhibition at 0.3 µM: 0.3 μM compound
T2 construct: expressed in transfected cells; host or cells: CHO-K1 cells
T2 sequence (P25021 whole entry): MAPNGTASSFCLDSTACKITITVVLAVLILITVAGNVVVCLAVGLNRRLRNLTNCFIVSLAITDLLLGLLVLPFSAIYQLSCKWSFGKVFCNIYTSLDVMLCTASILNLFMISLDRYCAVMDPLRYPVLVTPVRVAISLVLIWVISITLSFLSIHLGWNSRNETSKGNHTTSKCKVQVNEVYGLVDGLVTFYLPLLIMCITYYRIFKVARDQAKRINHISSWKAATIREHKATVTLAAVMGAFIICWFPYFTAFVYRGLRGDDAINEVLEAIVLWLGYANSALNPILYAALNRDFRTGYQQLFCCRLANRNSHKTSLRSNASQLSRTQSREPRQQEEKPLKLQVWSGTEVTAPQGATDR
Description: Non-specific binding was estimated in the presence of 3 μM Tiotidine. […] Biochemical assay results are presented as the percent inhibition of specific binding in Table 5.
Non-specific binding was estimated in the presence of 3 μM Tiotidine. […] Compounds were screened at 1 μM, using 1% DMSO as vehicle. Biochemical assay results are presented as the percent inhibition of specific binding in Table 6.

[3] = target: T3, human recombinant dopamine D2L receptor (Homo sapiens, UniProt P14416); assay: Dopamine D2L radioligand binding ([3H]Spiperone); details: percent inhibition of specific binding
T3 construct: expressed in transfected cells; host or cells: CHO cells
T3 sequence (P14416 whole entry): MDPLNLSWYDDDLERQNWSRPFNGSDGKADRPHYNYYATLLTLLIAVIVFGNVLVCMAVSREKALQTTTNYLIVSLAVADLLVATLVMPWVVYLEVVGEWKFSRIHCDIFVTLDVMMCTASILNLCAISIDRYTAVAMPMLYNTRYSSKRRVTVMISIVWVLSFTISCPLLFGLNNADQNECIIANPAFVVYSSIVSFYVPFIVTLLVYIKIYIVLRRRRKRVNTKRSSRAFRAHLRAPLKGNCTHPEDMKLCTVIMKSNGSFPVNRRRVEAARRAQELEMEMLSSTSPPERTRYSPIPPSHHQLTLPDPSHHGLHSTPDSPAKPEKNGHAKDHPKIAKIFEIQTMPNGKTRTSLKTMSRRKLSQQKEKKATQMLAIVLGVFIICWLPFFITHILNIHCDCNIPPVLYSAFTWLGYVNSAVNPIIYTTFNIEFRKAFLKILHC
Description: Non-specific binding was estimated in the presence of 10 μM Haloperidol. Receptor proteins were filtered and washed, the filters were then counted to determine [^3H]Spiperone specifically bound. […] Biochemical assay results are presented as the percent inhibition of specific binding in Table 6.

[4] = percent inhibition of specific binding, screened at 1 μM, read-out: Inhibition of ligand binding, Hist. H1
[5] = percent inhibition of specific binding, screened at 1 μM, read-out: Inhibition of ligand binding, Hist. H2
[6] = […] [3H]Pyrilamine, read-out: Histamine Binding H1, percent inhibition of specific binding
[7] = 1 μM compound, […] [3H]Pyrilamine, read-out: Histamine Binding H1, percent inhibition of specific binding
[8] = 0.1 nM [125I]Aminopotentidine, read-out: Histamine Binding H2, percent inhibition of specific binding
[9] = 1 μM compound, 0.1 nM [125I]Aminopotentidine, read-out: Histamine Binding H2, percent inhibition of specific binding

Row | inhibition at 1 µM [1, 4] | inhibition at 1 µM [2, 5] | inhibition at 1 µM [1, 7] | inhibition at 1 µM [2, 9] | SMILES | other results
1 | 47% | 58% | – | – | Cc1ccc(C(O)Cn2c3c(c4ccccc42)CN(C)CC3)cc1 (stereo not shown) [Compound 7] | –
2 | 96% | 73% | 96% | 73% | CCN1CCc2c(c3cc(C)ccc3n2CCc2ccc(C)cc2)C1 [Compound 26] | inhibition at 0.03 µM [1, 6]: 67%; inhibition at 0.1 µM [1, 6]: 81%; inhibition at 0.3 µM [2, 8]: 34%
3 | – | – | 99% | 54% | Cc1ccc2c(c1)c1c(n2CCc2ccccc2)CCN(C2CC2)C1 [Compound 35, 2-cyclopropyl-2,3,4,5-tetrahydro-8-methyl-5-phenethyl-1H-pyrido[4,3-b]indole] | –
4 | 101% | 53% | 101% | 53% | CCN1CCc2c(c3cc(C)ccc3n2CCc2ccccc2)C1 [Compound 37] | inhibition at 0.03 µM [1, 6]: 59%; inhibition at 0.1 µM [1, 6]: 78%; inhibition at 0.3 µM [2, 8]: 22%
5 | – | – | – | – | CN1CCc2c(c3cc(Cl)ccc3n2C[C@@](C)(O)c2ccc(F)cc2)C1 [Compound 110] | Inhibition of ligand binding, Dop. D2L [3]: 35%
6 | – | – | -4% | 13% | CCOC(=O)N1CCc2c(c3cc(C)ccc3n2CCc2cccnc2)C1 [Compound 217] | –
7 | – | – | – | 34% | CN1CCc2c(c3cc(Cl)ccc3n2CCc2n[nH]c(=S)n2C)C1(C)C [Compound 218] | Histamine Binding H1, percent inhibition of specific binding ([1]; 1 μM compound, […] [3H]Pyrilamine): 80%
8 | – | – | 89% | 71% | CN1Cc2c(n(CCc3n[nH]c(=S)n3C)c3ccc(C(F)(F)F)cc23)CC1(C)C [Compound 219] | –
